Assay [1] has as its target T1, acetylcholinesterase from Electrophorus electricus (Electrophorus electricus, UniProt O42275).
T1 construct: purchased Merck (Madrid, Spain)
Briefly: AChE inhibition assay (Ellman, spectrophotometric). In kind it is biochemical. The settings on record: for IC50: 5 concentrations of standard, linear regression of dose-response curve. From the text:
For the COX-2 assay, a COX-2 Inhibitor Screening Kit from Merck (Madrid, Spain) was purchased. For the analysis of AChE inhibition, acetylcholinesterase from Electrophorus electricus (lyophilized powder, 500 U), Base Trizma® (99.9% purity), chloridric acid (37%), Ellman Reactive (5,5′-dithiobis-(2-nitrobenzoic) acid, DTNB, 98% purity), acetylthiocholine iodide (≥98% purity), and physostigmine salicylate were purchased from Merck (Madrid, Spain). In both assays, a spectrophotometer from BioTek Synergy from Agilent Technologies (Santa Clara, CA, USA) was used.
AChE inhibitory activity was measured using a spectrophotometric assay described by Ellman et al. with slight modifications. First, in a 96-well plate, the AChE enzyme (10 mU mL^−1) (dissolved in 50 mM Tris-HCl buffer, pH 8.0) was incubated with the DTNB (150 μM) and 12 μL aliquots of the corresponding EVOO extracts in a final reaction volume of 250 μL. In addition, the inhibition control (physostigmine), the standards Ol, Lut, and Hyty, and the positive control of AChE activity (substituting the extracts/standards by the solvent of the extracts: ethanol:water (1:1, v/v) were tested. After 15 min of incubation at 30 °C, the substrate (acetylthiocholine iodide 150 μM, ATCh) was added, and AChE activity was determined by measuring the increase in absorbance reading at 405 nm for 15 min at 30 °C in a spectrophotometer (BioTek Synergy, Agilent Technologies, Santa Clara, CA, USA).
The AChE inhibitory activity of the EVOO extracts was expressed as a percentage of inhibition with respect to the positive activity control, indicating the average value obtained by analyzing the 3 extraction replicates obtained from each EVOO extract and analyzing them in duplicate. IC50, the concentration of a standard bioactive compound capable of inhibiting 50% of AChE activity, was determined by measuring 5 different concentrations of the standard compound in the reaction medium and interpolating in the linear regression of the dosis-response curve.

In the next assay the target is T2, COX-2 (Homo sapiens, UniProt P35354).
T2 construct: purchased Merck (Madrid, Spain)
T2 sequence (P35354 18-604): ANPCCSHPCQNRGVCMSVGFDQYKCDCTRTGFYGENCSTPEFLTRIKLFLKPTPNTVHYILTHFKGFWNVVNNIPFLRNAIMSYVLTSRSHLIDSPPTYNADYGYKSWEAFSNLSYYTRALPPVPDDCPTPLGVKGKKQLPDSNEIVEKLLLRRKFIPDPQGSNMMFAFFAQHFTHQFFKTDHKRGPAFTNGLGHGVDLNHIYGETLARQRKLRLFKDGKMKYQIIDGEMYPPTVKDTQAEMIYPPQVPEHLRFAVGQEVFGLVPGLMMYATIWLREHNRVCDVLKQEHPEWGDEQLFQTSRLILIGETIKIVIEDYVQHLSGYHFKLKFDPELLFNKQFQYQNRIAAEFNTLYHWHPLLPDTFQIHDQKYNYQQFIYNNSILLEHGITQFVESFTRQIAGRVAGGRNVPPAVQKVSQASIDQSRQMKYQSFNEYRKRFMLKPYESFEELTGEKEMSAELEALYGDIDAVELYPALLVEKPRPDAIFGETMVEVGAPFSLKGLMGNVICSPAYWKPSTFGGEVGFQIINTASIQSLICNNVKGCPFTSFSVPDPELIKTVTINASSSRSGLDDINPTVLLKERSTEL
Nature of the assay: biochemical. The note with it: 5 concentrations of standard, linear regression of dose-response curve. Here is the method:
For the COX-2 assay, a COX-2 Inhibitor Screening Kit from Merck (Madrid, Spain) was purchased. […] In both assays, a spectrophotometer from BioTek Synergy from Agilent Technologies (Santa Clara, CA, USA) was used.
The COX-2 assay was performed using the COX fluorescent inhibitor assay kit with slight modifications and measured spectrophotometrically (BioTek Synergy, Agilent Technologies, Santa Clara, CA, USA). EVOO extracts were diluted (1/200) in ethanol:water (1:1, v/v). Briefly, the assay was carried out in a 96-well plate, in which 10 μL of diluted EVOO extracts and 80 μL of the reaction mix (containing the cofactor, the probe, and the COX-2 enzyme) were added. […] EVOO extracts were analyzed in duplicate.

As usually defined, the IC50 is the point on the concentration scale where inhibition reaches its midpoint. A word on the inhibition: it is the change of the read-out against control, counted positive when it falls.

T1 sequence (O42275 24-633): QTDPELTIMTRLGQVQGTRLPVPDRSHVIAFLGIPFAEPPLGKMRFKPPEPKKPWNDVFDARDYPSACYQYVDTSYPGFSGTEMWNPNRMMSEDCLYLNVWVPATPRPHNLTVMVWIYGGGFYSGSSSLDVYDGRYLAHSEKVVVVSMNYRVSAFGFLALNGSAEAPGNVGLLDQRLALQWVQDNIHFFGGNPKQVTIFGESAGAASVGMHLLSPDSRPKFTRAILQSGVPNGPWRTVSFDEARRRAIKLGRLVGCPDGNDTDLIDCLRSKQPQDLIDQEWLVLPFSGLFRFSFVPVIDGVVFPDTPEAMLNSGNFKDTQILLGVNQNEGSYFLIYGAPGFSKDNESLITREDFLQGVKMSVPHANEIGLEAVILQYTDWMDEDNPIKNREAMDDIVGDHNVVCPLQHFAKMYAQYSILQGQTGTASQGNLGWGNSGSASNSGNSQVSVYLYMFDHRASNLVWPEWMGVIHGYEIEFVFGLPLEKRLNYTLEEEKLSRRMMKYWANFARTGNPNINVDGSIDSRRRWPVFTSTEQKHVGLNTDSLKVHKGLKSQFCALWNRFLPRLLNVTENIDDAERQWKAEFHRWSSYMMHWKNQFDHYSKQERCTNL

For the compound `O=c1cc(-c2ccc(O)c(O)c2)oc2cc(O)cc(O)c12` [Lut, luteolin], in assay [1], the IC50 turned out to be 145 µM.

Take `CNC(=O)Oc1ccc2c(c1)[C@]1(C)CCN(C)[C@@H]1N2C` [Physostigmin, physostigmine salicylate]: in assay [1] (0.025 µM of physostigmin in 250 μL of medium reaction containing 2.5 mU of AChE), the inhibition at 0.025 µM stood at 48.5 ± 1.69%.

`C/C=C1/[C@H](O[C@@H]2O[C@H](CO)[C@@H](O)[C@H](O)[C@H]2O)OC=C(C(=O)OC)[C@H]1CC(=O)OCCc1ccc(O)c(O)c1` [Ol, oleuropein]: the IC50 in assay [1] is 417 µM; at COX-2, 9.65 µM.

Consider `OCCc1ccc(O)c(O)c1` [Hyty, hydroxytyrosol], for which the half-maximal inhibitory concentration (IC50) in assay [1] came out at 328 µM; on COX-2, 10.8 µM.

(Values after PMC11084348, “Characterization of Phenolic Compounds in Extra Virgin Olive Oil from Granada (Spain) and Evaluation of Its Neuroprotective Action” (International Journal of Molecular Sciences, 2024).)
